Data from patent publication US20160326142A1, “PYRAZOLE CARBOXAMIDE COMPOUNDS, COMPOSITIONS AND METHODS OF USE” (Genentech, Inc., priority 2012, published 2016).

Target: T1, ITK (Homo sapiens, UniProt Q08881)
T1 construct: purchased Invitrogen PV3875
T1 sequence (Q08881 1-620): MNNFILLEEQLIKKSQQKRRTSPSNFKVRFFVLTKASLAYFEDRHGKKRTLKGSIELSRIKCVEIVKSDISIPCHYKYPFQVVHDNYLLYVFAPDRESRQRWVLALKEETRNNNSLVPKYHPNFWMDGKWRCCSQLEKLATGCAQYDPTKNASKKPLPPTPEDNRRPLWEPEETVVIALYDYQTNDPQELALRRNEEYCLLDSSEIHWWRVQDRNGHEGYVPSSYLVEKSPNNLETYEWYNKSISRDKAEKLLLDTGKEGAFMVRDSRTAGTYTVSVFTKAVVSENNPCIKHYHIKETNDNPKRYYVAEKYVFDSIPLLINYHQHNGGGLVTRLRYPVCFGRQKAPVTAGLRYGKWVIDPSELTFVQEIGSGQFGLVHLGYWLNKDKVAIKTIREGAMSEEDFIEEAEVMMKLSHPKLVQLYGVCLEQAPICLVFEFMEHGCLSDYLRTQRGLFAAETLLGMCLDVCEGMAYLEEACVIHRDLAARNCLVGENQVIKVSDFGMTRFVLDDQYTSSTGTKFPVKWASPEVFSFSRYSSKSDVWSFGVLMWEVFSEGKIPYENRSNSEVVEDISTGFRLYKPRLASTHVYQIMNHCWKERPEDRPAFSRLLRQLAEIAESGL
Assay: ITK enzyme assay (Caliper or LCMS peptide phosphorylation)
Assay type: biochemical
Details: purified ITK (Invitrogen PV3875), 20 μM ATP, Ki by Morrison's quadratic equation
Description: The ability of purified ITK (Invitrogen PV3875) to catalyze peptide phosphorylation is monitored using a Caliper LabChip 3000 microfluidic unit (Caliper assay) or by liquid chromatography-mass spectrometry (LCMS) using a Waters Acquity system (LCMS assay). […] Reactions are quenched by the addition of 2,2′,2″,2′″-(ethane-1,2-diyldinitrilo)tetraacetic acid (50 mM final). Non-phosphorylated substrate and phosphorylated product peptides are separated and quantified using a Caliper LabChip 3000 instrument. […] Reactions are quenched by the addition of trichloroacetic acid (5% v/v final). Non-phosphorylated substrate and phosphorylated product peptides are separated by ultra performance LC and detected by a coupled triple quadrupole MS device applying multiple reaction monitoring (MRM) for quantification. The area of the MRM-extracted mass signal is used to assess the inhibition by test compounds. Equilibrium dissociation constant (Ki) values for ITK inhibitors are calculated from plots of activity vs. inhibitor concentration using Morrison's quadratic equation that accounts for the potential of tight binding, and by also applying the conversion factor that accounts for competitive inhibition and the concentration of ATP used in the assay relative to its apparent Michaelis constant (Km,app).

In order of rising Ki:
1. CC1(C)CCc2c(C(=O)Nc3cnn(C(c4cccc(S(C)(=O)=O)c4)C4CCOC4)c3)n[nH]c2C1 (single isomer, unassigned) [Example 126d, 6,6-dimethyl-N-(1-((3-(methylsulfonyl)phenyl)(tetrahydrofuran-3-yl)methyl)-1H-pyrazol-4-yl)-4,5,6,7-tetrahydro-1H-indazole-3-carboxamide]  0.2 nM
2. CC1(C)Cc2[nH]nc(C(=O)Nc3cnn(C(c4ccccc4)C4CCS(=O)(=O)CC4)c3)c2C1 (single isomer, unassigned) [Example 94a, N-(1-((1,1-dioxidotetrahydro-2H-thiopyran-4-yl)(phenyl)methyl)-1H-pyrazol-4-yl)-5,5-dimethyl-1,4,5,6-tetrahydrocyclopenta[c]pyrazole-3-carboxamide]  0.3 nM
3. CC1(C)CCc2c(C(=O)Nc3cnn(C(c4ccccc4)[C@@H]4CNCCO4)c3)n[nH]c2C1 (single isomer, unassigned) [Example 66a]  0.3 nM
4. CC1(C)CCc2c(C(=O)Nc3cnn(C(c4cccnc4)C4CCOCC4)c3)n[nH]c2C1 (single isomer, unassigned) [Example 88b, 6,6-dimethyl-N-(1-(pyridin-3-yl(tetrahydro-2H-pyran-4-yl)methyl)-1H-pyrazol-4-yl)-4,5,6,7-tetrahydro-1H-indazole-3-carboxamide]  0.7 nM
5. CC1CC(C(c2ccccc2)n2cc(NC(=O)c3n[nH]c4c3CCC(C)(C)C4)cn2)CCS1(=O)=O (single isomer, unassigned) [Example 139b, 6,6-dimethyl-N-(1-((2-methyl-1,1-dioxidotetrahydro-2H-thiopyran-4-yl)(phenyl)methyl)-1H-pyrazol-4-yl)-4,5,6,7-tetrahydro-1H-indazole-3-carboxamide]  0.7 nM
6. CC1(C)CCc2c(C(=O)Nc3cnn(C(c4cccc(S(C)(=O)=O)c4)C4CCOCC4)c3)n[nH]c2C1 (single isomer, unassigned) [Example 154b, 6,6-dimethyl-N-(1-((3-(methylsulfonyl)phenyl)(tetrahydro-2H-pyran-4-yl)methyl)-1H-pyrazol-4-yl)-4,5,6,7-tetrahydro-1H-indazole-3-carboxamide]  1 nM
7. CC1(C)CCc2c(C(=O)Nc3cnn(C(c4nccs4)C4CCS(=O)(=O)CC4)c3)n[nH]c2C1 (single isomer, unassigned) [Example 87b, N-(1-((1,1-dioxidotetrahydro-2H-thiopyran-4-yl)(thiazol-2-yl)methyl)-1H-pyrazol-4-yl)-6,6-dimethyl-4,5,6,7-tetrahydro-1H-indazole-3-carboxamide]  1 nM
8. Cc1cccc(C(C2CNC2)n2cc(NC(=O)c3n[nH]c4c3CCC(C)(C)C4)cn2)c1 (single isomer, unassigned) [Example 47a, N-(1-(azetidin-3-yl(m-tolyl)methyl)-1H-pyrazol-4-yl)-6,6-dimethyl-4,5,6,7-tetrahydro-1H-indazole-3-carboxamide]  2 nM
9. CN(C)CCC(c1ccccc1)n1cc(NC(=O)c2n[nH]c3c2CC2CC2(C)C3)cn1 (single isomer, unassigned) [Example 52c, N-(1-(3-(dimethylamino)-1-phenylpropyl)-1H-pyrazol-4-yl)-5a-methyl-1,4,4a,5,5a,6-hexahydrocyclopropa[f]indazole-3-carboxamide]  2 nM
10. CC12Cc3c(C(=O)Nc4cnn(C(c5ccccc5)C5CCS(=O)(=O)CC5)c4)n[nH]c3C1C2 (single isomer, unassigned) [Example 152c, N-(1-((1,1-dioxidotetrahydro-2H-thiopyran-4-yl)(phenyl)methyl)-1H-pyrazol-4-yl)-4a-methyl-4,4a,5,5a-tetrahydro-1H-cyclopropa[4,5]cyclopenta[1,2-c]pyrazole-3-carboxamide]  2 nM
11. CC12Cc3[nH]nc(C(=O)Nc4cnn(C(c5cccnc5)C5CC[S+]([O-])CC5)c4)c3CC1C2 (single isomer, unassigned) [Example 146d, 5a-methyl-N-(1-((1-oxidotetrahydro-2H-thiopyran-4-yl)(pyridin-3-yl)methyl)-1H-pyrazol-4-yl)-1,4,4a,5,5a,6-hexahydrocyclopropa[f]indazole-3-carboxamide]  2 nM
12. CC1(C)CCc2c(C(=O)Nc3cnn(C(c4ccccc4)C4CNC4)c3)n[nH]c2C1 (single isomer, unassigned) [Example 34a, N-(1-(azetidin-3-yl(phenyl)methyl)-1H-pyrazol-4-yl)-6,6-dimethyl-4,5,6,7-tetrahydro-1H-indazole-3-carboxamide]  3 nM
13. CC1(C)CCc2c(C(=O)Nc3cnn(C(c4cccc(C(C)(C)O)c4)C4CCS(=O)(=O)CC4)c3)n[nH]c2C1 (single isomer, unassigned) [Example 119b]  4 nM
14. CN1CC(C(c2ccccc2)n2cc(NC(=O)c3n[nH]c4c3CCC(C)(C)C4)cn2)C1 (single isomer, unassigned) [Example 38a, 6,6-dimethyl-N-(1-((1-methylazetidin-3-yl)(phenyl)methyl)-1H-pyrazol-4-yl)-4,5,6,7-tetrahydro-1H-indazole-3-carboxamide]  4 nM
15. CN(CC(c1ccccc1)n1cc(NC(=O)c2n[nH]c3c2CCC(C)(C)C3)cn1)S(C)(=O)=O (single isomer, unassigned) [Example 61a, 6,6-dimethyl-N-(1-(2-(N-methylmethylsulfonamido)-1-phenylethyl)-1H-pyrazol-4-yl)-4,5,6,7-tetrahydro-1H-indazole-3-carboxamide]  5 nM
16. CCC(c1cccnc1)n1cc(NC(=O)c2n[nH]c3c2CCC(C)(C)C3)cn1 (single isomer, unassigned) [Example 54b, 6,6-dimethyl-N-(1-(1-(pyridin-3-yl)propyl)-1H-pyrazol-4-yl)-4,5,6,7-tetrahydro-1H-indazole-3-carboxamide]  6 nM
17. CC1(C)CCc2c(C(=O)Nc3cnn(C(CS(C)(=O)=O)c4cccnc4)c3)n[nH]c2C1 (single isomer, unassigned) [Example 73b, 6,6-dimethyl-N-(1-(2-(methylsulfonyl)-1-(pyridin-3-yl)ethyl)-1H-pyrazol-4-yl)-4,5,6,7-tetrahydro-1H-indazole-3-carboxamide]  7 nM
18. N#Cc1cccc(Cn2cc(NC(=O)c3n[nH]c4c3CCC(c3cn[nH]c3)C4)cn2)c1 (single isomer, unassigned) [Example 1a, N-(1-(3-cyanobenzyl)-1H-pyrazol-4-yl)-6-(1H-pyrazol-4-yl)-4,5,6,7-tetrahydro-1H-indazole-3-carboxamide]  9.4 nM
19. CC1CC(C(c2ccccc2)n2cc(NC(=O)c3n[nH]c4c3CCC(C)(C)C4)cn2)CCS1(=O)=O (single isomer, unassigned) [Example 139d, 6,6-dimethyl-N-(1-((2-methyl-1,1-dioxidotetrahydro-2H-thiopyran-4-yl)(phenyl)methyl)-1H-pyrazol-4-yl)-4,5,6,7-tetrahydro-1H-indazole-3-carboxamide]  12 nM
20. Cc1nnc(C(C)n2cc(NC(=O)c3n[nH]c4c3CCC(C)(C)C4)cn2)o1 (single isomer, unassigned) [Example 101b, 6,6-dimethyl-N-(1-(1-(5-methyl-1,3,4-oxadiazol-2-yl)ethyl)-1H-pyrazol-4-yl)-4,5,6,7-tetrahydro-1H-indazole-3-carboxamide]  12 nM
21. CC1(C)CCc2c(C(=O)Nc3cnn(C(CN4CCOCC4)c4ccccc4)c3)n[nH]c2C1 (single isomer, unassigned) [Example 62b, 6,6-dimethyl-N-(1-(2-morpholino-1-phenylethyl)-1H-pyrazol-4-yl)-4,5,6,7-tetrahydro-1H-indazole-3-carboxamide]  16 nM
22. COc1ccc(C(C)n2cc(NC(=O)c3n[nH]c4c3CCC(C)(C)C4)cn2)cn1 (single isomer, unassigned) [Example 109b, N-(1-(1-(6-methoxypyridin-3-yl)ethyl)-1H-pyrazol-4-yl)-6,6-dimethyl-4,5,6,7-tetrahydro-1H-indazole-3-carboxamide]  21 nM
23. O=C(Nc1cnn(Cc2ccccc2)c1)c1n[nH]c2c1CC1(CCOC1)C2 (single isomer, unassigned) [Example 79a, N-(1-benzyl-1H-pyrazol-4-yl)-4,4′,5′,6-tetrahydro-1H,2′H-spiro[cyclopenta[c]pyrazole-5,3′-furan]-3-carboxamide]  46 nM
24. N#Cc1cccc(Cn2cc(NC(=O)c3n[nH]c4c3CCC4)cn2)c1 [Example 20, N-(1-(3-cyanobenzyl)-1H-pyrazol-4-yl)-1,4,5,6-tetrahydrocyclopenta[c]pyrazole-3-carboxamide]  89 nM
